The values below are quoted from earlier work in patent publication US7122567B2, “Heterocyclic amide derivatives having glycogen phosphorylase inhibitory activity” (AstraZeneca AB, priority 2002, dated 2006).

Data set [1] deals with hepatocytes.
The conditions of data set [2]: db/db and ob/ob mice following treatment.
For data set [3] the following is noted: conscious dogs, following a glucagon challenge.

As to `O=C(N[C@@H](Cc1ccc(F)cc1)C(=O)N1CCC(O)CC1)c1cc2cc(Cl)ccc2[nH]1` [CP320626], in data set [1], the glucagon stimulated glycogenolysis entry is “reduce” and the glucose output entry is listed as “reduce”. In addition, the plasma glucose concentration result in data set [2] is recorded as “reduced, in a dose related manner”.

For the compound `CN(C)C(=O)[C@H](O)[C@H](Cc1ccccc1)NC(=O)c1cc2cc(Cl)ccc2[nH]1` [CP91149], in data set [1], the glucagon stimulated glycogenolysis entry is given as “reduce” and the glucose output result is reported as “reduce”. Further, the plasma glucose concentration result in data set [2] was “reduced, in a dose related manner”.

On to `CCN1C(C)=C(C(=O)OC(C)C)C(c2ccccc2Cl)C2=C1COC2=O` (centres unmarked) [Bay R 3401], for which, in data set [3], the arterial plasma glucose result is recorded as “reduced significantly” and the hepatic glucose output result is “reduced significantly”.
